{"source": "patent US20060122104A1", "about": "“Methods for in vitro expansion and transdifferentiation of human pancreatic acinar cells into insulin-producing cells” (priority 2002, published 2006)", "system": "primary human pancreatic cells", "test": "Attachment and growth of primary pancreatic cells on ECM-coated surfaces (cell counting, MTS metabolic activity assay)", "type": "cell-based", "settings": "10^5 cells/cm^2, grown 8 days; FIG. 4A", "protocol": "The attachment of primary human pancreatic cells was evaluated by counting the number of attached cells vs. the number of cells initially seeded on a panel of ECM surfaces comprised of Collagen I (1 μg/cm^2), Fibronectin (3 μg/cm^2), Laminin (2 μg/cm^2), Vitronectin (1 μg/cm^2), Matrigel (1 μg/cm^2), Human ECM (1 μg/cm^2), or Poly-D -Lysine (3 μg/cm^2). In one condition, a mixture of Collagen IV, Laminin, and Fibronectin was utilized. […] Excess ECM solution was then removed and surfaces were rinsed twice in water. Just before seeding cells, the water was aspirated, then cells were seeded onto the ECM surface at a density of 1×10^5 cells/cm^2 in growth medium (PCM) composed of DMEM:HamsF12 mixture (1:1) with 4 mM glutamine, 1×ITS supplement (GIBCO 51500-056), 10% Fetal Calf Serum (Inactivated, Qualified, GIBC 26140-079), and 10 ng/ml Epidermal Growth Factor (EGF) (BD 4001). Cells were seeded onto tissue-culture polystyrene surface as a control. […] The metabolic activity of cells subjected to the various conditions was determined by an MTS assay. Viable cells were measured using the MTS assay (Promega CellTiter 96 Aqueous One Solution Cell Proliferation Assay), a colorimetric method for determining the number of viable cells in proliferation or cytotoxicity. […]", "data": [{"substance": "Fibronectin", "values": [{"measurement": "cell attachment and expansion on coated surface", "result": "suitable surface for cell attachment and expansion"}]}, {"substance": "Laminin", "values": [{"measurement": "cell attachment and expansion on coated surface", "result": "suitable surface for cell attachment and expansion"}]}]}
